# From ChEMBL document CHEMBL5107949, “Design, synthesis, and antibacterial activity of N-(trifluoromethyl)phenyl substituted pyrazole derivatives” (RSC Med Chem, 2021)
# Calls of active or inactive are those of the source. The calls are words filed in the database; no cut-off is given here.
# What was measured:
# Staphylococcus aureus [1] = experiment: Inhibition of lipid synthesis in Staphylococcus aureus ATCC 29213 at 8 times MIC preincubated for 30 mins followed by [3H]-glycerol and measured after 50 mins by [3H]-glycerol incorporation based beta scintillation counter analysis; format: functional; details: time 80 min; 1.333 h
# Staphylococcus aureus [2] = experiment: Inhibition of DNA synthesis in Staphylococcus aureus ATCC 29213 at 8 times MIC preincubated for 30 mins followed by [3H]-thymidine and measured after 30 mins by [3H]-thymidine incorporation based beta scintillation counter analysis; format: functional; details: time 60 min; 1 h
# Staphylococcus aureus [3] = experiment: Anti-biofilm activity against Staphylococcus aureus ATCC 25923 assessed as eradication of biofilm formation incubated for 24 hrs by Calgary biofilm device assay; format: functional
# Staphylococcus aureus [4] = experiment: Antibacterial activity against Staphylococcus aureus ATCC 25923 assessed as minimum bactericidal concentration incubated for 24 hrs by Calgary biofilm device assay; details: ATCC 25923, 24 h
# [5] = Cytotoxicity against human HEK293 cells reduction in cell viability incubated for 24 hrs by resazurin cell viability assay; format: toxicity, cell-based
# Enterococcus faecium = experiment: Antibacterial activity against vancomycin resistant Enterococcus faecium ATCC 700221 assessed as inhibition of bacterial growth by CLSI protocol based broth microdilution method; format: functional
# Staphylococcus aureus [6] = experiment: Bactericidal activity against Staphylococcus aureus ATCC 700699 assessed as bacteria elimination at 4 times MIC and measured after 6 hrs by time-kill assay; format: functional
# Enterococcus faecalis [7] = experiment: Antibacterial activity against antibiotic susceptible Enterococcus faecalis ATCC 29212 assessed as inhibition of bacterial growth by CLSI protocol based broth microdilution method; format: functional
# [8] = tested on: Staphylococcus epidermidis; experiment: Antibacterial activity against antibiotic resistant Staphylococcus epidermidis ATCC 700296 assessed as inhibition of bacterial growth by CLSI protocol based broth microdilution method; format: functional
# Staphylococcus aureus [9] = experiment: Antibacterial activity against antibiotic resistant Staphylococcus aureus ATCC 700699 assessed as inhibition of bacterial growth by CLSI protocol based broth microdilution method; format: functional
# Enterococcus faecalis [10] = experiment: Inhibition of biofilm formation in Enterococcus faecalis ATCC 29212 at 6.25 ug/ml incubated for 24 hrs by Calgary biofilm device assay; format: functional; details: dose 6.25 µg/ml
# Enterococcus faecalis [11] = experiment: Anti-biofilm activity against Enterococcus faecalis ATCC 29212 assessed as minimum bactericidal concentration incubated for 24 hrs by Calgary biofilm device assay; details: ATCC 29212, 24 h
# Enterococcus faecalis [12] = experiment: Anti-biofilm activity against Enterococcus faecalis ATCC 29212 assessed as biofilm eradication at 3.125 to 12.5 ug/ml incubated for 24 hrs by Calgary biofilm device assay; format: functional, organism-based; details: dose 3.125-12.5 µg/ml
# Staphylococcus aureus [13] = experiment: Inhibition of biofilm formation in Staphylococcus aureus ATCC 25923 at 12.5 ug/ml incubated for 24 hrs by Calgary biofilm device assay; format: functional
# Bacillus subtilis = experiment: Antibacterial activity against antibiotic resistant Bacillus subtilis ATCC 6623 assessed as inhibition of bacterial growth by CLSI protocol based broth microdilution method; format: functional
# Staphylococcus aureus [14] = experiment: Inhibition of biofilm formation in Staphylococcus aureus ATCC 25923 at 3.125 to 12.5 ug/ml incubated for 24 hrs by Calgary biofilm device assay; format: functional, organism-based; details: dose 3.125-12.5 µg/ml, DDE = dose-dependent effect
# Staphylococcus aureus [15] = experiment: Antibacterial activity against antibiotic resistant Staphylococcus aureus BAA-2312 assessed as inhibition of bacterial growth by CLSI protocol based broth microdilution method; format: functional
# Staphylococcus aureus [16] = experiment: Antibacterial activity against antibiotic susceptible Staphylococcus aureus ATCC 25923 assessed as inhibition of bacterial growth by CLSI protocol based broth microdilution method; format: functional
# Enterococcus faecalis [17] = experiment: Inhibition of biofilm formation in Enterococcus faecalis ATCC 29212 at 12.5 ug/ml incubated for 24 hrs by Calgary biofilm device assay; format: functional; details: dose 12.5 µg/ml
# Enterococcus faecalis [18] = experiment: Anti-biofilm activity against Enterococcus faecalis ATCC 29212 assessed as eradication of biofilm formation incubated for 24 hrs by Calgary biofilm device assay; format: functional
# Staphylococcus aureus [19] = experiment: Antibacterial activity against antibiotic resistant Staphylococcus aureus ATCC 33592 assessed as inhibition of bacterial growth by CLSI protocol based broth microdilution method; format: functional
# Staphylococcus aureus [20] = experiment: Antibacterial activity against antibiotic resistant Staphylococcus aureus ATCC 33591 assessed as inhibition of bacterial growth by CLSI protocol based broth microdilution method; format: functional
# Staphylococcus aureus [21] = experiment: Bactericidal activity against Staphylococcus aureus ATCC 700699 persisters assessed as log reduction in colony forming unit at 16 times MIC after 4 hrs by colony counting method; format: functional
# Staphylococcus aureus [22] = experiment: Inhibition of RNA synthesis in Staphylococcus aureus ATCC 29213 at 8 times MIC preincubated for 30 mins followed by [3H]-uridine and measured after 30 mins by [3H]-uridine incorporation based beta scintillation counter analysis; format: functional; details: time 60 min; 1 h
structure (smiles),measurement,setting,value
C/C=C/C/C=C/CCC(=O)[C@H]1O[C@H]1C(N)=O [CERULENIN],inhibition (INH),Staphylococcus aureus [1],71.9%
O=C(O)c1cn(C2CC2)c2cc(N3CCNCC3)c(F)cc2c1=O [CIPROFLOXACIN],inhibition (INH),Staphylococcus aureus [2],86.2%
Cc1cc(NCc2cn(-c3ccc(C(F)(F)F)cc3)nc2-c2ccc(C(=O)O)cc2)ccc1Br,MBEC,Staphylococcus aureus [3],12.5 µg/mL
same,MBC,Staphylococcus aureus [4],12.5 µg/mL
same,IC50 at 24 h,[5],> 12 µg/mL
same,MIC,Enterococcus faecium,3.12 µg/mL
same,Activity,Staphylococcus aureus [6],>99.9%
same,MIC,Enterococcus faecalis [7],6.25 µg/mL
same,MIC,[8],12.5 µg/mL
same,MIC,Staphylococcus aureus [9],1.56 µg/mL
same,inhibition,Enterococcus faecalis [10],Active
same,MBC,Enterococcus faecalis [11],12.5 µg/mL
same,Activity,Enterococcus faecalis [12],Active
same,inhibition at 12.5 µg/mL,Staphylococcus aureus [13],> 90%
same,MIC,Bacillus subtilis,1.56 µg/mL
same,inhibition,Staphylococcus aureus [14],Dde
same,MIC,Staphylococcus aureus [15],3.12 µg/mL
same,MIC,Staphylococcus aureus [16],3.12 µg/mL
same,inhibition,Enterococcus faecalis [17],Active
same,MBEC,Enterococcus faecalis [18],25 µg/mL
same,MIC,Staphylococcus aureus [19],3.12 µg/mL
same,MIC,Staphylococcus aureus [20],6.25 µg/mL
same,log(activity),Staphylococcus aureus [21],>2
CO[C@H]1/C=C/O[C@@]2(C)Oc3c(C)c(O)c4c(O)c(c(/C=N/N5CCN(C)CC5)c(O)c4c3C2=O)NC(=O)/C(C)=C\C=C\[C@H](C)[C@H](O)[C@@H](C)[C@@H](O)[C@@H](C)[C@H](OC(C)=O)[C@@H]1C [RIFAMPIN],inhibition (INH),Staphylococcus aureus [22],76.3%
